Source: ChEMBL document CHEMBL4346705, “(±)-trans-Dihydronarciclasine and (±)-trans-dihydrolycoricidine analogues modified in their ring A: Evaluation of their anticancer activity and a SAR study” (2019)

Key:
Assay type in all cases: functional
[1] = system: RPMI-8226; test: Antiproliferative activity against human RPMI8226 cells assessed as cell viability at 10^-5 M incubated for 48 hrs by sulforhodamine B assay relative to control; conditions: RPMI-8226, 48 h, read-out: Activity
[2] = system: A549; test: Antiproliferative activity against human A549 cells assessed as cell viability at 10^-5 M incubated for 48 hrs by sulforhodamine B assay relative to control; conditions: A549, 48 h, read-out: Activity
[3] = system: U-251; test: Antiproliferative activity against human U251 cells assessed as cell viability at 10^-5 M incubated for 48 hrs by sulforhodamine B assay relative to control; conditions: U-251, 48 h, read-out: Activity
[4] = system: MDA-MB-435; test: Antiproliferative activity against human MDA-MB-435 cells assessed as cell viability at 10^-5 M incubated for 48 hrs by sulforhodamine B assay relative to control; conditions: MDA-MB-435, 48 h, read-out: Activity
[5] = system: SNB-19; test: Cytotoxicity against human SNB19 cells assessed as growth inhibition after 48 hrs by sulforhodamine B assay; conditions: SNB-19, 48 h
[6] = system: COLO 205; test: Cytotoxicity against human COLO205 cells assessed as growth inhibition after 48 hrs by sulforhodamine B assay; conditions: COLO 205, 48 h
[7] = system: KM12; test: Antiproliferative activity against human KM12 cells assessed as cell viability at 10^-5 M incubated for 48 hrs by sulforhodamine B assay relative to control; conditions: KM12, 48 h, read-out: Activity
[8] = system: CAKI-1; test: Antiproliferative activity against human Caki1 cells assessed as cell viability at 10^-5 M incubated for 48 hrs by sulforhodamine B assay relative to control; conditions: CAKI-1, 48 h, read-out: Activity
[9] = system: HOP-92; test: Antiproliferative activity against human HOP92 cells assessed as cell viability at 10^-5 M incubated for 48 hrs by sulforhodamine B assay relative to control; conditions: HOP-92, 48 h, read-out: Activity
[10] = system: LOX IMVI; test: Antiproliferative activity against human LOXIMVI cells assessed as cell viability at 10^-5 M incubated for 48 hrs by sulforhodamine B assay relative to control; conditions: read-out: Activity
[11] = system: COLO 205; test: Antiproliferative activity against human COLO205 cells assessed as cell viability at 10^-5 M incubated for 48 hrs by sulforhodamine B assay relative to control; conditions: COLO 205, 48 h, read-out: Activity
[12] = system: SK-MEL-5; test: Antiproliferative activity against human SK-MEL-5 cells assessed as cell viability at 10^-5 M incubated for 48 hrs by sulforhodamine B assay relative to control; conditions: SK-MEL-5, 48 h, read-out: Activity
[13] = system: HL-60(TB); test: Antiproliferative activity against human HL-60(TB) cells assessed as cell viability at 10^-5 M incubated for 48 hrs by sulforhodamine B assay relative to control; conditions: HL-60, 48 h, read-out: Activity
[14] = system: MCF7; test: Antiproliferative activity against human MCF7 cells assessed as cell viability at 10^-5 M incubated for 48 hrs by sulforhodamine B assay relative to control; conditions: MCF7, 48 h, read-out: Activity
[15] = system: SNB-75; test: Antiproliferative activity against human SNB75 cells assessed as cell viability at 10^-5 M incubated for 48 hrs by sulforhodamine B assay relative to control; conditions: SNB-75, 48 h, read-out: Activity
[16] = system: HCC 2998; test: Antiproliferative activity against human HCC2998 cells assessed as cell viability at 10^-5 M incubated for 48 hrs by sulforhodamine B assay relative to control; conditions: HCC 2998, 48 h, read-out: Activity
[17] = system: OVCAR-3; test: Antiproliferative activity against human OVCAR3 cells assessed as cell viability at 10^-5 M incubated for 48 hrs by sulforhodamine B assay relative to control; conditions: OVCAR-3, 48 h, read-out: Activity
[18] = system: IGROV-1; test: Antiproliferative activity against human IGROV1 cells assessed as cell viability at 10^-5 M incubated for 48 hrs by sulforhodamine B assay relative to control; conditions: IGROV-1, 48 h, read-out: Activity
[19] = system: SF-268; test: Antiproliferative activity against human SF268 cells assessed as cell viability at 10^-5 M incubated for 48 hrs by sulforhodamine B assay relative to control; conditions: SF-268, 48 h, read-out: Activity
[20] = system: HT-29; test: Antiproliferative activity against human HT-29 cells assessed as cell viability at 10^-5 M incubated for 48 hrs by sulforhodamine B assay relative to control; conditions: HT-29, 48 h, read-out: Activity
[21] = system: MDA-MB-231; test: Antiproliferative activity against human MDA-MB-231 cells assessed as cell viability at 10^-5 M incubated for 48 hrs by sulforhodamine B assay relative to control; conditions: MDA-MB-231, 48 h, read-out: Activity
[22] = system: M14; test: Antiproliferative activity against human M14 cells assessed as cell viability at 10^-5 M incubated for 48 hrs by sulforhodamine B assay relative to control; conditions: M14, 48 h, read-out: Activity
[23] = system: BT-549; test: Antiproliferative activity against human BT549 cells assessed as cell viability at 10^-5 M incubated for 48 hrs by sulforhodamine B assay relative to control; conditions: BT-549, 48 h, read-out: Activity
[24] = system: OVCAR-4; test: Antiproliferative activity against human OVCAR4 cells assessed as cell viability at 10^-5 M incubated for 48 hrs by sulforhodamine B assay relative to control; conditions: OVCAR-4, 48 h, read-out: Activity
[25] = system: HOP-62; test: Antiproliferative activity against human HOP62 cells assessed as cell viability at 10^-5 M incubated for 48 hrs by sulforhodamine B assay relative to control; conditions: HOP-62, 48 h, read-out: Activity
[26] = system: RPMI-8226; test: Cytotoxicity against human RPMI8226 cells assessed as growth inhibition after 48 hrs by sulforhodamine B assay; conditions: RPMI-8226, 48 h
[27] = system: HCT-15; test: Antiproliferative activity against human HCT15 cells assessed as cell viability at 10^-5 M incubated for 48 hrs by sulforhodamine B assay relative to control; conditions: HCT-15, 48 h, read-out: Activity
[28] = system: HCT-15; test: Cytotoxicity against human HCT15 cells assessed as growth inhibition after 48 hrs by sulforhodamine B assay; conditions: HCT-15, 48 h
[29] = system: DU-145; test: Antiproliferative activity against human DU145 cells assessed as cell viability at 10^-5 M incubated for 48 hrs by sulforhodamine B assay relative to control; conditions: DU-145, 48 h, read-out: Activity
[30] = system: MDA-MB-468; test: Antiproliferative activity against human MDA-MB-468 cells assessed as cell viability at 10^-5 M incubated for 48 hrs by sulforhodamine B assay relative to control; conditions: MDA-MB-468, 48 h, read-out: Activity
[31] = system: SK-MEL-28; test: Antiproliferative activity against human SK-MEL-28 cells assessed as cell viability at 10^-5 M incubated for 48 hrs by sulforhodamine B assay relative to control; conditions: SK-MEL-28, 48 h, read-out: Activity

Structure (SMILES) | viability at 10 µM [1] | viability at 10 µM [2] | viability at 10 µM [3] | viability at 10 µM [4] | viability at 10 µM [7] | viability at 10 µM [8] | viability at 10 µM [9] | viability at 10 µM [10] | viability at 10 µM [11] | viability at 10 µM [12] | viability at 10 µM [13] | viability at 10 µM [14] | viability at 10 µM [15] | viability at 10 µM [16] | viability at 10 µM [17] | viability at 10 µM [18] | viability at 10 µM [19] | viability at 10 µM [20] | viability at 10 µM [21] | viability at 10 µM [22] | further results
O=C1NC2C(CC(O)C(O)C2O)c2cc3c(c(O)c21)OCO3 (racemic) | -24.2% | -8.4% | -10.5% | -42.2% | -11.5% | -7.77% | -19% | -48.8% | -38.2% | -72.7% | -37.8% | 1.73% | -25.3% | -22.8% | -10.8% | -7.85% | -4.43% | -14.9% | -27.9% | -81.7% | GI50 [5]: 46.6 nM; TGI [5]: 690 nM; GI50 [6]: 50.5 nM; TGI [6]: 210 nM; viability at 10 µM [23]: -12.5%; viability at 10 µM [24]: -23.7%; viability at 10 µM [25]: -18.9%; GI50 [26]: 229 nM; TGI [26]: 630 nM; viability at 10 µM [27]: 1.81%; GI50 [28]: 85.7 nM; TGI [28]: 1110 nM; viability at 10 µM [29]: -19.1%; viability at 10 µM [30]: -45.8%
O=C1NC2C(CC(O)C(O)C2O)c2cc3c(c(O)c21)OCCO3 (racemic) | -28.1% | -14.3% | -14.9% | 1.45% | -2.6% | 4.9% | -20.1% | -41.1% | -49% | -52.1% | -18.8% | -13.3% | -4.29% | -46.2% | -13% | -16.7% | -0.71% | -14.5% | -24.1% | -45.8% | GI50 [5]: 155 nM; LC50 [5]: > 100000 nM; TGI [5]: 1030 nM; GI50 [6]: 176 nM; TGI [6]: 410 nM; viability at 10 µM [31]: -16.4%; viability at 10 µM [23]: -17.5%; viability at 10 µM [24]: -8.78%; viability at 10 µM [25]: -26.5%; GI50 [26]: 265 nM; LC50 [26]: > 100000 nM; TGI [26]: 1140 nM; viability at 10 µM [27]: -11.9%; GI50 [28]: 280 nM; LC50 (50% lethal concentration) [28]: > 100000 nM; TGI [28]: 1910 nM; viability at 10 µM [29]: -2.39%; viability at 10 µM [30]: -27.2%
CCOc1cc2c(cc1OCC)C1CC(O)C(O)C(O)C1NC2=O (racemic) | 102% | 101% | 106% | 109% | 104% | 87% | 102% | 92.8% | 106% | 99.6% | 94.5% | 94.4% | 98.9% | 106% | 107% | 107% | 97.9% | 106% | 103% | 99.1% | viability at 10 µM [31]: 110%; viability at 10 µM [23]: 101%; viability at 10 µM [24]: 107%; viability at 10 µM [25]: 99.2%; viability at 10 µM [27]: 101%; viability at 10 µM [29]: 106%; viability at 10 µM [30]: 94.2%
CCOc1c(OC)cc2c(c1OCC)C(=O)NC1C2CC(O)C(O)C1O (racemic) | 106% | 94.2% | 100% | 105% | 102% | 85.2% | 84% | 97.6% | 113% | 99.8% | 86.6% | 95.2% | 92.4% | 104% | 103% | 103% | 91.3% | 99.6% | 107% | 99.1% | viability at 10 µM [31]: 108%; viability at 10 µM [23]: 103%; viability at 10 µM [24]: 103%; viability at 10 µM [25]: 106%; viability at 10 µM [27]: 102%; viability at 10 µM [29]: 110%; viability at 10 µM [30]: 98.1%
CCOc1cc2c(c(O)c1OCC)C(=O)NC1C2CC(O)C(O)C1O (racemic) | 102% | 92.8% | 98.4% | 109% | 106% | 95.7% | 78.5% | 98.5% | 110% | 102% | 102% | 90.9% | 93.4% | 101% | 104% | 109% | 96.4% | 99.7% | 103% | 100% | viability at 10 µM [31]: 105%; viability at 10 µM [23]: 100%; viability at 10 µM [24]: 103%; viability at 10 µM [25]: 101%; viability at 10 µM [27]: 99%; viability at 10 µM [29]: 105%; viability at 10 µM [30]: 94.8%
CCOc1c(OC)cc2c(c1O)C(=O)NC1C2CC(O)C(O)C1O (racemic) | 103% | 94.7% | 96.7% | 108% | 104% | 91.3% | 85.2% | 98.1% | 115% | 101% | 100% | 92.1% | 93.5% | 102% | 102% | 102% | 102% | 100% | 106% | 105% | viability at 10 µM [31]: 105%; viability at 10 µM [23]: 99.6%; viability at 10 µM [24]: 107%; viability at 10 µM [25]: 98.6%; viability at 10 µM [27]: 102%; viability at 10 µM [29]: 109%; viability at 10 µM [30]: 94.9%
